Laboratory results published in PMC3731216, “Origin and Functional Diversification of an Amphibian Defense Peptide Arsenal” (PLoS Genetics, 2013).
pIC50: −log10 of the molar value. Converted amounts (≈) assume the structure as drawn. Where a SMILES comes first, the peptide text is derived from it.

Tests used:
[1] = system: Escherichia coli (ATCC 25922); test: MIC assay in liquid medium (twofold dilutions) against E. coli; assay type: cell-based; conditions: lowest concentration in twofold dilutions with no growth; 5×10^5 CFU/ml, Müller-Hinton broth, 37°C, 18 hours, read by eye; duplicate or triplicate, min–max if variable
Description: (§1) Seventeen predicted and recovered peptides were de novo synthesized using solid-phase technology by CASLO Laboratory ApS (Lyngby, Denmark) and delivered as HPLC-purified (>95%) trifluoracetate (TFA) salts. The peptide salts were stored as 5.12 mM stock solutions in 0.01% (V/V) acetic acid/0.2% (m/V) BSA. Peptides were tested against Escherichia coli (ATCC 25922) and Pseudomonas aeruginosa (ATCC 15692), Staphylococcus aureus (ATCC 25923), Micrococcus luteus, Saccharomyces cerevisiae, a protozoan parasite (Trypanosoma brucei brucei), mouse (Mus musculus) red blood cells and mouse spleen tissue cultures (containing 50–60% B-cells, ∼25–30% T-cells, and 5% myeloid cells). All assays were performed in duplicate or triplicate.
(§2) Activity against the bacteria and fungus was measured by assessing the lowest peptide concentration in a series of twofold dilutions at which no growth was detected (known as the minimum inhibitory concentration, MIC). Bacterial and yeast cultures (5×10^5 colony forming units/ml) were prepared in Müller-Hinton (MH) broth and Luria-Bertani (LB) broth respectively and transferred to serial dilutions of peptides ranging from 512 or 256 µM down to 1 or 0.5 µM in 96-well polypropylene plates. After incubation at 37°C (bacteria) or 30°C (S. cerevisiae) for 18 hours, growth of the cultures was checked by eye. In addition to MIC, we determined minimum microbicidal concentrations (MMC) by inoculating samples of the MIC assays on agar plates lacking peptides and checking for overnight growth. In all cases, MIC and MMC were identical.

[2] = system: Pseudomonas aeruginosa (ATCC 15692); test: MIC assay in liquid medium (twofold dilutions) against P. aeruginosa; assay type: cell-based; conditions: lowest concentration in twofold dilutions with no growth; 5×10^5 CFU/ml, Müller-Hinton broth, 37°C, 18 hours, read by eye; duplicate or triplicate, min–max if variable
Description: as §1, §2

[3] = system: Staphylococcus aureus (ATCC 25923); test: MIC assay in liquid medium (twofold dilutions) against S. aureus; assay type: cell-based; conditions: lowest concentration in twofold dilutions with no growth; 5×10^5 CFU/ml, Müller-Hinton broth, 37°C, 18 hours, read by eye; duplicate or triplicate, min–max if variable
Description: as §1, §2

Micrococcus luteus = test: MIC assay in liquid medium (twofold dilutions) against M. luteus; assay type: cell-based; conditions: lowest concentration in twofold dilutions with no growth; 5×10^5 CFU/ml, Müller-Hinton broth, 37°C, 18 hours, read by eye; duplicate or triplicate, min–max if variable
Description: as §1, §2

Saccharomyces cerevisiae = test: MIC assay in liquid medium (twofold dilutions) against S. cerevisiae; assay type: cell-based; conditions: lowest concentration in twofold dilutions with no growth; 5×10^5 CFU/ml, Luria-Bertani broth, 30°C, 18 hours, read by eye; duplicate or triplicate, min–max if variable
Description: as §1, §2

[4] = system: Trypanosoma brucei brucei AnTat1.1 bloodstream parasites; test: Trypanolytic activity (LC95, 30 minutes); assay type: cell-based; conditions: lowest concentration killing at least 95% of parasites after 30 minutes; PSG buffer with 5% FCS, light microscope count; min–max of repeated tests
Description: as §1
Activity against T. brucei parasites was assessed as the minimum concentration in a series of twofold dilutions required to kill 95% of parasites in 30 minutes (LC95). Frozen stabilates of Trypanosoma brucei brucei AnTat1.1 bloodstream parasites were expanded by infection of C57Black/6 mice (Janvier). Mice with systemic parasitaemia (typically 4–5 days post infection) were exsanguinated and parasites were purified from heparinized blood by DEAE-cellulose (DE52, Whatman) chromatography. Collected parasites were washed twice with Phosphate-Saline-Glucose buffer (PSG-buffer) and enumerated microscopically using a Bürker hematocytometer. The DEAE52-purified parasites (stock: 10^6 parasites/ml PSG buffer containing 5% FCS) were added to polypropylene 96-well plates containing the serial peptide dilutions to obtain total volumes of 200 µl. After incubation for 30 minutes, trypanolytic activity was assessed using a light microscope by calculating the percentage of dead parasites in a minimum of 200 counted cells.

mouse red blood cells = test: Hemolysis of mouse red blood cells (HC50); assay type: cell-based; conditions: lowest concentration causing at least 50% hemolysis; mouse blood diluted 1/100 in RPMI, 37°C, 30 minutes, OD 550 nm; 100% = 1% Tween-20
Description: as §1
Activity against mouse red blood cells was examined by assessing the lowest peptide concentration in a series of twofold dilutions causing at least 50% hemolysis (HC50). Briefly, heparinized blood was obtained by cardiac puncture of mice euthanized via CO2. The blood was diluted 1/100 in RPMI and added to polypropylene 96-well plates containing the serial peptide dilutions to obtain total volumes of 100 µl. The plates were incubated at 37°C in a humidified atmosphere for 30 minutes and centrifuged at 1400 rpm for 2 minutes to pellet intact red blood cells allowing visual observation of hemolysis. Supernatants were subsequently transferred to 96-well flat-bottom plates to allow spectrophotometry using an ELISA reader (OD measured at 550 nm). The percentage of hemolyis for each peptide concentration was calculated as 100×(ODobs−OD0%)/(OD100%−OD0%), where ODobs is the OD measured for the peptide concentration, OD0% is the average OD in the absence of peptides (0% hemolysis), and OD100% is the average OD in the presence of 1% Tween-20 (100% hemolysis).

[5] = system: T-lymphocytes (naive C57Black/6 splenocytes); test: Inhibition of Concanavalin A-induced T-cell proliferation in spleen cell cultures; assay type: cell-based, Mus musculus; conditions: lowest concentration causing at least 50% inhibition of Concanavalin A-induced T-cell proliferation; 2×10^5 splenocytes, 24 h + 18 h [3H]thymidine, 37°C; min–max if variable
Description: as §1
Activity against T-lymphocytes was assessed as the lowest peptide concentration in a series of twofold dilutions causing at least 50% inhibition of Concanavalin A-induced T-cell proliferation (IC50). Solutions containin 2×10^5 naive C57Black/6 splenocytes in the presence of 2.5 µg Concanavalin A were added to polypropylene 96-well plates containing the serial peptide dilutions to obtain total volumes of 100 µl. After incubation for 24 hours at 37°C in a humidified atmosphere, the cells were pulsed with [^3H]thymidine and incubated for an additional 18 hours. The amount of [^3H]thymidine incorporation was assessed by a β-counter as a measure of cell proliferation and the percentage of proliferation inhibition for each peptide concentration was calculated as 100×(1−(Tobs/T100%)), where Tobs is the [^3H]thymidine level measured for the peptide concentration, and T100% is the [^3H]thymidine level measured for Concanavalin-A-induced cell proliferation in the absence of peptide (representing 100% proliferation).

[6] = Hydrophobicity as % TFA/AcN solvent at HPLC elution time; assay type: physicochemical; conditions: chromatographic; expressed as % TFA/AcN solvent at HPLC elution time

Row | Molecule | MIC E. coli [1] [µM] | MIC P. aeruginosa [2] [µM] | MIC S. aureus [3] [µM] | MIC M. luteus (Micrococcus luteus) | MIC S. cerevisiae (Saccharomyces cerevisiae) [µM] | LC95 T. brucei [4] [µM] | HC50 Erythrocytes (mouse red blood cells) [µM] | pIC50 [5] | Hydrophobicity [6]
1 | CC(C)C[C@H](NC(=O)[C@H](CC(C)C)NC(=O)[C@H](CC(N)=O)NC(=O)[C@H](CO)NC(=O)CNC(=O)[C@@H](NC(=O)[C@H](CCCCN)NC(=O)[C@H](CC(C)C)NC(=O)CNC(=O)[C@@H](NC(=O)[C@H](CCCCN)NC(=O)[C@H](CC(C)C)NC(=O)[C@H](CC(C)C)NC(=O)[C@H](CO)NC(=O)CNC(=O)[C@H](CC(C)C)NC(=O)[C@H](CC(C)C)NC(=O)[C@@H](N)CC(N)=O)[C@@H](C)O)C(C)C)C(N)=O [CPF-St7] (H-NLLGSLLKTGLKVGSNLL-NH2; N-terminus assumed) | 128 (≈ 235 µg/mL) | >256 | 32 (≈ 58.9 µg/mL) | 2 µM (≈ 3.68 µg/mL) | 64 (≈ 118 µg/mL) | 2 to 64 | 256 | 3.89 | 45,2 % TFA/AcN solvent
2 | CC[C@H](C)[C@H](NC(=O)[C@H](C)NC(=O)[C@H](CC(=O)O)NC(=O)[C@H](CC(C)C)NC(=O)CNC(=O)CNC(=O)[C@H](CCCCN)NC(=O)[C@H](C)NC(=O)[C@H](Cc1ccccc1)NC(=O)[C@H](CCCCN)NC(=O)[C@H](CCCCN)NC(=O)[C@H](CC(C)C)NC(=O)CNC(=O)CNC(=O)[C@H](CC(C)C)NC(=O)[C@@H](NC(=O)[C@@H](NC(=O)[C@H](CO)NC(=O)[C@H](Cc1c[nH]c2ccccc12)NC(=O)[C@@H](NC(=O)CN)C(C)C)[C@@H](C)O)[C@@H](C)CC)C(=O)N[C@H](C(=O)N[C@@H](CC(N)=O)C(=O)N1CCC[C@H]1C(=O)N[C@@H](CCCCN)C(=O)O)C(C)C [XPF-St6] (H-GVWSTILGGLKKFAKGGLDAIVNPK-OH) | 2 to 4 | 16 (≈ 41.1 µg/mL) | 8 to 16 | 0,5 µM | 8 (≈ 20.6 µg/mL) |  | 64 | 5.10 | 
3 | CC(C)C[C@H](NC(=O)CNC(=O)[C@H](C)NC(=O)[C@@H](NC(=O)[C@H](CC(N)=O)NC(=O)[C@H](CO)NC(=O)[C@H](CC(C)C)NC(=O)[C@H](CC(C)C)NC(=O)CN)C(C)C)C(=O)N[C@@H](CC(C)C)C(=O)N[C@@H](CCCCN)C(=O)N[C@@H](CCC(N)=O)C(=O)N[C@@H](Cc1ccccc1)C(=O)N[C@@H](C)C(=O)N[C@@H](CCCCN)C(=O)NCC(=O)NCC(=O)N[C@H](C(=O)N[C@@H](CC(N)=O)C(=O)N[C@@H](C)C(=O)N[C@H](C(=O)N[C@@H](CC(C)C)C(=O)N[C@@H](CC(N)=O)C(=O)N1CCC[C@H]1C(=O)N[C@@H](CCCCN)C(=O)O)C(C)C)C(C)C [XPF-St7] (H-GLLSNVAGLLKQFAKGGVNAVLNPK-OH) | 8 (≈ 20.1 µg/mL) | 32 (≈ 80.3 µg/mL) | 128 (≈ 321 µg/mL) | 1 µM (≈ 2.51 µg/mL) | 32 (≈ 80.3 µg/mL) |  | >256 | 4.80 | 
4 | CC[C@H](C)[C@H](NC(=O)[C@H](C)NC(=O)[C@H](CC(N)=O)NC(=O)[C@@H](NC(=O)CNC(=O)CNC(=O)[C@H](CCCCN)NC(=O)[C@H](C)NC(=O)[C@H](Cc1ccccc1)NC(=O)[C@H](CCCCN)NC(=O)[C@H](CCCCN)NC(=O)[C@H](C)NC(=O)[C@H](Cc1ccccc1)NC(=O)[C@H](CC(N)=O)NC(=O)[C@H](C)NC(=O)[C@@H](NC(=O)[C@H](CCCCN)NC(=O)[C@H](CO)NC(=O)[C@H](CCSC)NC(=O)[C@H](Cc1ccccc1)NC(=O)CN)C(C)C)C(C)C)C(=O)N[C@@H](CCSC)C(=O)N[C@@H](CC(N)=O)C(=O)N[C@@H](CCC(N)=O)C(=O)N[C@@H](CCCCN)C(=O)O [XPF-St8] (H-GFMSKVANFAKKFAKGGVNAIMNQK-OH) | 1 (≈ 2.69 µg/mL) | 4 (≈ 10.7 µg/mL) | 128 (≈ 344 µg/mL) | 0,5 µM | 8 (≈ 21.5 µg/mL) |  | 64 | 4.80 | 
5 | CC[C@H](C)[C@H](NC(=O)[C@H](Cc1ccccc1)NC(=O)CNC(=O)[C@H](CCCCN)NC(=O)[C@H](C)NC(=O)[C@H](Cc1ccccc1)NC(=O)[C@H](CCCCN)NC(=O)[C@H](CCCCN)NC(=O)[C@H](C)NC(=O)[C@H](CO)NC(=O)[C@H](Cc1c[nH]cn1)NC(=O)[C@H](C)NC(=O)[C@@H](NC(=O)[C@H](CCC(=O)O)NC(=O)[C@H](CCCCN)NC(=O)[C@H](CC(C)C)NC(=O)CN)C(C)C)C(=O)N[C@@H](CO)C(=O)NCC(=O)N[C@@H](CC(C)C)C(=O)N[C@H](C(=O)NCC(=O)N[C@@H](CO)C(=O)O)[C@@H](C)O [magainin-St1] (H-GLKEVAHSAKKFAKGFISGLTGS-OH) | 64 (≈ 149 µg/mL) | >256 | >256 | 32 µM (≈ 74.7 µg/mL) | 128 (≈ 299 µg/mL) |  | >256 | < 3.59 | 
6 | FIGALLGPLLNLLKa [PFQa-St1, homologue of pFQa encoded by xpf-St7] |  |  |  |  |  |  |  |  | 55,4 % TFA/AcN solvent
7 | GMATKAGTVLGKVTKAIIGAALa [PGLa-St3, predicted S. tropicalis skin peptide encoded by pgla-St3] |  |  |  |  |  |  |  |  | 39,2 % TFA/AcN solvent
8 | pQGLIGTLTAKQIKKa [levitide-St2, levitide-related peptide encoded by xpf-St5] |  |  |  |  |  |  |  |  | 35,0 % TFA/AcN solvent
9 | pQGLMGTLISKQMKKa [levitide-St1, levitide-related peptide encoded by xpf-St4] |  |  |  |  |  |  |  |  | 31,6 % TFA/AcN solvent
